{"source": "patent US5663207A", "about": "“Gem-dichlorocyclopropanes as antitumor agents” (priority 1995, dated 1997)", "key": {"[1]": {"system": "Immature Swiss-Webster female mice (uterine weight)", "assay": "Uterotrophic assay for estrogenic activity in immature mice", "type": "in vivo, mouse (Swiss-Webster)", "source_text": "(§1) The biological evaluation of the test compounds consisted of the in vitro rat cytosolic estradiol receptor binding assay, the in vivo immature mouse uterotrophic (estrogenic) and antiuterotrophic (antiestrogenic) assays, and the in vitro suppression of the proliferation of the ER positive MCF-7 human breast cancer cell line.\n(§2) Vital-free immature female Swiss-Webster mice were obtained at 17-19 days of age from Sasco weighing 8-10 g, and were used in the uterotrophic and antiuterotrophic assays. Immature female Sprague-Dawley rats, obtained at 17-19 days of age from Sasco, weighing 28-33 g, were used as sources of uteri for the estradiol receptor binding assay. Animals were housed in wire topped polycarbonate cages at six animals per cage, with the environment controlled at 25° C. and a 12 h light/dark cycle. The animals received a diet of Wayne Lab Blox rodent chow and tap water ad libitum.\nImmature Swiss-Webster female mice (8-15 g) at 17-19 days of age were used. Estradiol was used in the dosage range of […] (total dose) as the assay standard. Each cyclopropyl analogue was examined at doses of 5, 25, and 100 μg (total dose). […] Estrogenic activity was measured as an increase in uterine weight produced by each test compound."}, "[2]": {"system": "Immature Swiss-Webster female mice (estradiol-stimulated uterine weight)", "assay": "Antiuterotrophic assay for antiestrogenic activity in immature mice", "type": "in vivo, mouse (Swiss-Webster)", "conditions": "0.4, 0.8, and 1.6 mg; three-day assay; estradiol 0.03 μg", "source_text": "as §1\nas §2, with “The animals received a diet of Wayne Lab Blox rodent chow and tap water ad libitum.” left out\nThe antiestrogenic assay was conducted as described for the estrogenic assay, except that each mouse in the cyclopropyl treatment groups received a standard stimulating dose of estradiol (0.03 μg) in sesame oil (0.1 mL) and the test compounds or MER 25 were administered in isopropyl myristate (0.05 mL) in a dosage range of 0.4, 0.8 and 1.6 mg (total dose). […] Antiestrogenic activity was measured as a decrease in the estradiol-stimulated […] response in groups that received both the test compound and estradiol as compared to the group treated only with estradiol."}}, "data": [{"smiles": "Oc1ccc(C2(c3ccc(O)cc3)C(Cl)(Cl)C23CCCCC3)cc1", "note": "[Compound 30, 1,1-Dichloro-2,2-bis-(p-hydroxyphenyl)-spiro[2.5]octane]", "values": [{"measurement": "uterine weight response (estrogenic activity, in words)", "setting": "[1]; doses of 5, 25 and 100 μg (total dose)", "value": "dose-dependent increase in uterine weight"}, {"measurement": "relative potency (uterotrophic) versus estradiol", "setting": "[1]; of that of estradiol, doses of 5, 25, and 100 μg", "value": 0.05, "unit": "%"}, {"measurement": "antiestrogenic activity: effect on estradiol-induced uterine weight gain (in words)", "setting": "[2]", "value": "augmented uterotrophic effects beyond the stimulating dose of estradiol"}]}]}
